# Reference: PubChem BioAssay AID234 (DTP/NCI, 2004)
# Several values for one entry are separate records, joined by “and”; a condition that tells them apart may be missing. Identical values can stand only once. Inconclusive results are not listed.
# Tested on: C3AKF1 mice, hamster liver cystadenocarcinoma s.c., tumor weight T/C
# Assay: NCI In Vivo Anticancer Drug Screen. Data for tumor model Cystadenocarcinoma, Liver (No. 1) (Hamster) (subcutaneous) in C3AKF1 (CHKRF1) mice
# Conditions: endpoint: mean tumor weight, higher = larger tumour
# Method: The antitumor activity of compounds was measured in mice bearing transplantable tumors. Survival or tumor size were measured and the results are expressed as the measurement made in the treated group (T) divided by the measurement made in the vehicle treated control group (C). The tumor model used in this assay is Cystadenocarcinoma, Liver (No. 1) (Hamster) (subcutaneous) in C3AKF1 (CHKRF1) mice
# [1] = dose: 1.0 mg/kg/injection, schedule: Q01DX010 (ip), vehicle: carboxymethylcellulose (CMC)
# [2] = dose: 3.0 mg/kg/injection, schedule: Q01DX010 (ip), vehicle: carboxymethylcellulose (CMC)
# [3] = dose: 3.5 mg/kg/injection, schedule: Q#A X020 (ip), vehicle: carboxymethylcellulose (CMC)
# [4] = dose: 45.0 mg/kg/injection, schedule: Q01DX010 (ip), vehicle: carboxymethylcellulose (CMC)
# [5] = dose: 25.0 mg/kg/injection, schedule: Q01DX010 (ip), vehicle: carboxymethylcellulose (CMC)
# [6] = dose: 50.0 mg/kg/injection, schedule: Q01DX010 (ip), vehicle: carboxymethylcellulose (CMC)
# [7] = dose: 100.0 mg/kg/injection, schedule: Q01DX010 (ip), vehicle: carboxymethylcellulose (CMC)
# [8] = dose: 400.0 mg/kg/injection, schedule: Q01DX010 (ip), vehicle: carboxymethylcellulose (CMC)
# [9] = dose: 12.0 mg/kg/injection, schedule: Q01DX010 (ip), vehicle: carboxymethylcellulose (CMC)
# [10] = dose: 2.0 mg/kg/injection, schedule: Q01DX010 (ip), vehicle: carboxymethylcellulose (CMC)
# [11] = dose: 200.0 mg/kg/injection, schedule: Q01DX010 (ip), vehicle: carboxymethylcellulose (CMC)
# [12] = dose: 50.0 mg/kg/injection, schedule: Q01DX010 (ip), vehicle: saline
# [13] = dose: 100.0 mg/kg/injection, schedule: Q01DX010 (ip), vehicle: saline
# [14] = dose: 62.0 mg/kg/injection, schedule: Q01DX010 (ip), vehicle: carboxymethylcellulose (CMC)
# [15] = dose: 250.0 mg/kg/injection, schedule: Q01DX010 (ip), vehicle: carboxymethylcellulose (CMC)
structure (smiles),measurement,setting,value
Cn1cnc([N+](=O)[O-])c1Sc1nc(N)nc2c1ncn2C1OC(CO)C(O)C1O (stereo not drawn),T/C,[1],124 % of control
same,T/C,[2],69 % of control
same,T/C,"dose: 15.0 mg/kg/injection, schedule: Q01DX010 (ip), vehicle: carboxymethylcellulose (CMC)",88 % of control
COC(=O)/C=C\C(=O)O (tested in a mixture with another compound),T/C,[3],105 % of control
same,T/C,"dose: 7.5 mg/kg/injection, schedule: Q#A X020 (ip), vehicle: carboxymethylcellulose (CMC)",49 % of control
same,T/C,"dose: 15.0 mg/kg/injection, schedule: Q#A X020 (ip), vehicle: carboxymethylcellulose (CMC)",38 % of control
O=C1NC2C(NC(=O)N2Cl)N1Cl (stereo not drawn),T/C,"dose: 20.0 mg/kg/injection, schedule: Q01DX010 (ip), vehicle: saline",101 % of control
CC(C)CCSc1nc(N)nc2nc[nH]c12,T/C,[4],74 % of control
same,T/C,"dose: 90.0 mg/kg/injection, schedule: Q01DX010 (ip), vehicle: carboxymethylcellulose (CMC)",70 % of control
same,T/C,"dose: 180.0 mg/kg/injection, schedule: Q01DX010 (ip), vehicle: carboxymethylcellulose (CMC)",94 % of control
CCOC(=O)NC,T/C,"dose: 75.0 mg/kg/injection, schedule: Q01DX010 (ip), vehicle: saline",64 % of control
same,T/C,"dose: 150.0 mg/kg/injection, schedule: Q01DX010 (ip), vehicle: saline",83 % of control
same,T/C,"dose: 300.0 mg/kg/injection, schedule: Q01DX010 (ip), vehicle: saline",93 % of control
same,T/C,"dose: 600.0 mg/kg/injection, schedule: Q01DX010 (ip), vehicle: saline",83 % of control
Cc1ccc(N=NN(C)C)cc1,T/C,[5],96 % of control
same,T/C,[6],93 % of control
CCCn1cnc2c(SCc3ccccc3Cl)nc(N)nc21,T/C,[5],88 % of control
same,T/C,[7],90 % of control and 105 % of control
same,T/C,[8],96 % of control
Nc1nc(SCc2ccccc2Cl)c2ncn(C3OC(CO)C(O)C3O)c2n1 (stereo not drawn),T/C,"dose: 6.0 mg/kg/injection, schedule: Q01DX010 (ip), vehicle: carboxymethylcellulose (CMC)",104 % of control
same,T/C,[9],85 % of control
same,T/C,[5],112 % of control
CCCCCCCCCCCCCS,T/C,[5],100 % of control
same,T/C,[6],69 % of control
same,T/C,[7],90 % of control
N#C[C@@H]1C2C=CC(CC2)[C@H]1C#N,T/C,"dose: 0.5 mg/kg/injection, schedule: Q01DX010 (ip), vehicle: carboxymethylcellulose (CMC)",72 % of control
same,T/C,[1],68 % of control
same,T/C,[10],57 % of control
CC(C)=CC1C(C(=O)OCc2ccc(C)cc2C)C1(C)C (stereo not drawn),T/C,"dose: 87.5 mg/kg/injection, schedule: Q01DX010 (ip), vehicle: carboxymethylcellulose (CMC)",90 % of control
same,T/C,"dose: 175.0 mg/kg/injection, schedule: Q01DX010 (ip), vehicle: carboxymethylcellulose (CMC)",72 % of control
same,T/C,"dose: 350.0 mg/kg/injection, schedule: Q01DX010 (ip), vehicle: carboxymethylcellulose (CMC)",63 % of control
Clc1ncnc2c1ncn2C1CCCO1 (stereo not drawn),T/C,[5],77 % of control
same,T/C,[7],81 % of control and 93 % of control
same,T/C,[8],52 % of control and 72 % of control
same,T/C,"dose: 800.0 mg/kg/injection, schedule: Q01DX010 (ip), vehicle: carboxymethylcellulose (CMC)",113 % of control
Nc1ncnc2c1ncn2C1CCCO1 (stereo not drawn),T/C,[5],107 % of control
same,T/C,[6],107 % of control
same,T/C,[11],69 % of control
O=P(c1ccccc1)(N1CC1)N1CC1,T/C,"dose: 3.0 mg/kg/injection, schedule: Q01DX010 (ip), vehicle: saline",108 % of control
same,T/C,"dose: 6.0 mg/kg/injection, schedule: Q01DX010 (ip), vehicle: saline",98 % of control
same,T/C,"dose: 12.0 mg/kg/injection, schedule: Q01DX010 (ip), vehicle: saline",76 % of control
same,T/C,"dose: 24.0 mg/kg/injection, schedule: Q01DX010 (ip), vehicle: saline",212 % of control
S=c1nc[nH]c2c1ncn2C1CCCO1 (stereo not drawn),T/C,[9],95 % of control
same,T/C,[5],74 % of control
same,T/C,[6],63 % of control
Cc1c2ccc3ccccc3c2c[n+]2ccccc12,T/C,[2],153 % of control
same,T/C,[9],89 % of control
C=CC(=O)NCNC(=O)C=C,T/C,"dose: 15.0 mg/kg/injection, schedule: Q01DX010 (ip), vehicle: saline",66 % of control
same,T/C,"dose: 30.0 mg/kg/injection, schedule: Q01DX010 (ip), vehicle: saline",119 % of control
same,T/C,"dose: 60.0 mg/kg/injection, schedule: Q01DX010 (ip), vehicle: saline",62 % of control
same,T/C,"dose: 120.0 mg/kg/injection, schedule: Q01DX010 (ip), vehicle: saline",77 % of control
CCOc1ccc(Nc2ncnc3nc[nH]c23)cc1CN(CCCl)CCCl,T/C,"dose: 1.0 mg/kg/injection, schedule: Q01DX010 (ip), vehicle: saline",78 % of control
same,T/C,"dose: 2.0 mg/kg/injection, schedule: Q01DX010 (ip), vehicle: saline",99 % of control
same,T/C,"dose: 4.0 mg/kg/injection, schedule: Q01DX010 (ip), vehicle: saline",98 % of control
CCN(CC)CCN1C(=O)c2cccc3cccc(c23)C1=O,T/C,"dose: 25.0 mg/kg/injection, schedule: Q01DX010 (ip), vehicle: saline",90 % of control
same,T/C,[12],163 % of control
same,T/C,[13],109 % of control
COc1ccccc1NC(=O)CSC(N)=O,T/C,[6],92 % of control
same,T/C,[7],86 % of control
same,T/C,[11],95 % of control
same,T/C,[8],38 % of control
O=C1C=CC(=O)O1 (tested in a mixture with another compound),T/C,"dose: 1.5 mg/kg/injection, schedule: Q#A X020 (ip), vehicle: carboxymethylcellulose (CMC)",68 % of control
same,T/C,[3],82 % of control
same,T/C,"dose: 7.5 mg/kg/injection, schedule: Q#A X010 (ip), vehicle: carboxymethylcellulose (CMC)",91 % of control
same,T/C,"dose: 62.5 mg/kg/injection, schedule: Q#A X010 (ip), vehicle: carboxymethylcellulose (CMC)",77 % of control
CN(N=O)C(N)=O,T/C,"dose: 3.75 mg/kg/injection, schedule: Q01DX010 (ip), vehicle: carboxymethylcellulose (CMC)",95 % of control
CCCCCCCCCCCCn1c(C)nc2ccccc21,T/C,[10],79 % of control
same,T/C,"dose: 8.0 mg/kg/injection, schedule: Q01DX010 (ip), vehicle: carboxymethylcellulose (CMC)",62 % of control
CCCCSc1nc(N)nc2c1ncn2CC(C)CC (stereo not drawn),T/C,[14],64 % of control
same,T/C,"dose: 125.0 mg/kg/injection, schedule: Q01DX010 (ip), vehicle: carboxymethylcellulose (CMC)",82 % of control
same,T/C,[15],86 % of control and 94 % of control
same,T/C,"dose: 750.0 mg/kg/injection, schedule: Q01DX010 (ip), vehicle: carboxymethylcellulose (CMC)",54 % of control
COc1ccc2c(c1OC)C(=O)O[C@@H]2[C@H]1c2c(cc3c(c2OC)OCO3)CCN1C,T/C,[12],102 % of control
same,T/C,[13],88 % of control
same,T/C,"dose: 200.0 mg/kg/injection, schedule: Q01DX010 (ip), vehicle: saline",92 % of control
CCC(=O)NC1=C(N2CC2)C(=O)C(NC(=O)CC)=C(N2CC2)C1=O,T/C,"dose: 0.6 mg/kg/injection, schedule: Q01DX010 (ip), vehicle: saline",97 % of control
same,T/C,"dose: 1.2 mg/kg/injection, schedule: Q01DX010 (ip), vehicle: saline",76 % of control
O=C(Nc1ccc(C2=NCCN2)cc1)c1ccc(C(=O)Nc2ccc(C3=NCCN3)cc2)c(NC(=O)c2ccc(C(=O)Nc3cc(C(=O)Nc4ccc(C5=NCCN5)cc4)ccc3C(=O)Nc3ccc(C4=NCCN4)cc3)cc2)c1,T/C,[14],102 % of control
same,T/C,[15],205 % of control
CC(C)(c1ccccc1)c1ccc(O)cc1,T/C,"dose: 37.5 mg/kg/injection, schedule: Q01DX010 (ip), vehicle: carboxymethylcellulose (CMC)",79 % of control
O=C(COc1cc(Cl)c(Cl)cc1Cl)OCCOc1cc(Cl)c(Cl)cc1Cl,T/C,"dose: 11.25 mg/kg/injection, schedule: Q01DX010 (ip), vehicle: carboxymethylcellulose (CMC)",88 % of control
same,T/C,"dose: 22.5 mg/kg/injection, schedule: Q01DX010 (ip), vehicle: carboxymethylcellulose (CMC)",102 % of control
same,T/C,[4],87 % of control
CCCC(Sc1nc(N)nc2nc[nH]c12)C(=O)O (stereo not drawn),T/C,"dose: 10.0 mg/kg/injection, schedule: Q01DX010 (ip), vehicle: carboxymethylcellulose (CMC)",66 % of control
same,T/C,"dose: 20.0 mg/kg/injection, schedule: Q01DX010 (ip), vehicle: carboxymethylcellulose (CMC)",103 % of control
same,T/C,"dose: 40.0 mg/kg/injection, schedule: Q01DX010 (ip), vehicle: carboxymethylcellulose (CMC)",123 % of control
same,T/C,"dose: 80.0 mg/kg/injection, schedule: Q01DX010 (ip), vehicle: carboxymethylcellulose (CMC)",116 % of control and 118 % of control
same,T/C,"dose: 160.0 mg/kg/injection, schedule: Q01DX010 (ip), vehicle: carboxymethylcellulose (CMC)",76 % of control
